In patent US10822366B2, “Lincosamide derivatives, preparation and use thereof as antimicrobial agent” (MIKROBIOLOGICKY USTAV AV CR, V. V. I., priority 2017, dated 2020):
≈ marks a conversion by molar mass, not a printed value.

Columns and labels:
Kocuria rhizophila = assay: Disc diffusion test (antibacterial activity); format: cell-based; settings: paper discs (diameter 5 mm) saturated with 5 nmol compound; LB agar covered with lincomycin sensitive test strain Kocuria rhizophila; 37° C., 20 h
Method: Filtration paper discs (geometric diameter 5 mm) saturated with 5 nmol of tested novel lincosamide compounds were placed on LB agar plates (tryptone 10 g, yeast extract 5 g, NaCl 10 g, supplemented with distilled water to 1000 mL, pH 7.5; agar 15 g) continuously covered with culture of the lincomycin sensitive test strain Kocuria rhizophila. The plates were incubated at 37° C. for 20 h.

K. rhizophila = assay: Minimum inhibitory concentration determination (EUCAST method); format: cell-based, Kocuria rhizophila; settings: K. rhizophila in LB medium, concentration range 25-1600 nM tested, 24 h at 37° C.
Method: Minimum inhibitory concentrations were determined using the previously published method (European Committee for Antimicrobial Susceptibility Testing (EUCAST), Clin Microbiol Infect (2003), 9 (8), ix-xv). 5 μL suspension (McFarland scale 0.5) of K. rhizophila bacterial culture was inoculated into 1 mL of LB medium containing test substances of the desired concentration (a concentration range of 25-1600 nM was tested). The cultures were incubated for 24 h at 37° C.

Row | MIC (K. rhizophila; Kocuria rhizophila) [µM] | MIC (K. rhizophila) [µM] | SMILES | Disc diffusion test: size of inhibition zones (Kocuria rhizophila) [mm]
1 | 0.1 (≈ 0.0557 µg/mL) | – | CCC[C@@H]1C[C@@H](C(=O)N[C@@H]([C@H]2O[C@H](SCCOC(=O)c3ccccc3O)[C@H](O)[C@@H](O)[C@H]2O)[C@@H](C)O)N(C)C1 | 29
2 | – | 1.6 (≈ 0.846 µg/mL) | CO[C@H](C)[C@@H](NC(=O)[C@@H]1CCCN1C)[C@H]1O[C@H](SCCOC(=O)c2ccccc2O)[C@H](O)[C@@H](O)[C@H]1O [Celesticetin] | 19
3 | 0.1 (≈ 0.0571 µg/mL) | – | CCC[C@@H]1C[C@@H](C(=O)N[C@@H]([C@H]2O[C@H](SCCOC(=O)c3ccccc3O)[C@H](O)[C@@H](O)[C@H]2O)[C@@H](C)OC)N(C)C1 | 28
4 | – | 0.4 (≈ 0.163 µg/mL) | CCC[C@@H]1C[C@@H](C(=O)N[C@@H]([C@H]2O[C@H](SC)[C@H](O)[C@@H](O)[C@H]2O)[C@@H](C)O)N(C)C1 [Lincomycin] | 24
